Experimental findings from PubChem BioAssay (NCI) are described below.

Among the test systems are DLD-1 colon; U251 CNS; DMS 114 small cell lung; LXFL 529 NSCLC; HOP-92 NSCLC; BT-549 breast; HS 578T breast; NCI/ADR-RES ovarian; SNB-78 CNS.
What all share (assay): NCI tumour cell line growth inhibition, 48 h

SMILES strings stand for the structures.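 Where inhibition never reached the appropriate level, the endpoint shown equals the highest concentration tested. Otherwise, values were interpolated linearly from a five-concentration, 48-hour dose response in 96-well plates. GI50: concentration for 50% inhibition of growth. TGI marks complete inhibition of growth.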

Consider `CN(C)CCn1c2ccccc2c2nc3cc4ccccc4cc3nc21`, for which the TGI is 16.5 µM in the test with DLD-1 colon, 19.5 µM in the test with U251 CNS, 20.7 µM with DMS 114 small cell lung and 17.9 µM with LXFL 529 NSCLC.

As for `O=S1(=O)CCN(Cc2ccccn2)CC1`, the TGI in the test on HOP-92 NSCLC, in the test with BT-549 breast, in the test with HS 578T breast, with U251 CNS and in the test on NCI/ADR-RES ovarian was more than 100 µM in each case.

Take `O=C(CCC(=O)Nc1ccc(Cl)cc1)CC(=O)c1ccc(F)cc1`: the TGI in the test with HOP-92 NSCLC, in the test with DLD-1 colon, in the test with LXFL 529 NSCLC and in the test on SNB-78 CNS was more than 100 µM each time.

As to `COc1cc(OC)c2c(=O)c(O)c(-c3ccc(OC)c(OC)c3)oc2c1`, the TGI in the test on HOP-92 NSCLC was 20.7 µM; with BT-549 breast, more than 100 µM; with HS 578T breast, 70.9 µM; in the test on U251 CNS it was more than 100 µM; in the test on NCI/ADR-RES ovarian, 17.5 µM.

Regarding `CS(=O)(=O)CCNCc1ccc(-c2ccc3ncnc(Nc4ccc(OCc5cccc(C(F)(F)F)c5)cc4)c3c2)o1`, the GI50 was 2.6 µM in the test on HOP-92 NSCLC; 9.57 µM with BT-549 breast; 7.02 µM in the test with HS 578T breast; 4.22 µM in the test with U251 CNS; 7.19 µM in the test on NCI/ADR-RES ovarian. Moreover, the TGI in the test on HOP-92 NSCLC was 7.81 µM; in the test on BT-549 breast, more than 21.8 µM; in the test with HS 578T breast, more than 19.4 µM; with U251 CNS, 9.51 µM; in the test on NCI/ADR-RES ovarian, more than 25 µM.

As for `CCOC(=O)CC1(O)C=CC(=O)C=C1`, the GI50 was 3.22 µg/mL in the test with HOP-92 NSCLC; 1.48 µg/mL with BT-549 breast; 2.13 µg/mL in the test on HS 578T breast; 0.477 µg/mL in the test on U251 CNS; 1.28 µg/mL with NCI/ADR-RES ovarian. For the same molecule, the TGI turned out to be 5.44 µg/mL in the test on HOP-92 NSCLC; 3.67 µg/mL in the test on BT-549 breast; 15.3 µg/mL with HS 578T breast; 1.45 µg/mL with U251 CNS; 6.57 µg/mL in the test on NCI/ADR-RES ovarian.

Turning to `Brc1ccc([I+]c2ccc(Br)cc2)cc1`, the GI50 was 0.822 µM in the test with HOP-92 NSCLC; 2.02 µM in the test with BT-549 breast; 2.96 µM in the test with HS 578T breast; 1.32 µM in the test with U251 CNS; more than 100 µM with NCI/ADR-RES ovarian. Further, the TGI in the test on HOP-92 NSCLC was 5.69 µM; in the test on BT-549 breast, 12.3 µM; with HS 578T breast, 19.9 µM; in the test with U251 CNS, 2.65 µM; in the test with NCI/ADR-RES ovarian it was more than 100 µM.

Turning to `CCCCCCCCCCCCCCCc1cc(O)ccc1N`, the GI50 in the test on HOP-92 NSCLC is 12.4 µM; in the test on BT-549 breast, 0.305 µM; with HS 578T breast, 17 µM; in the test with U251 CNS, more than 80.2 µM; in the test with NCI/ADR-RES ovarian, 5.81 µM. Also, the TGI with HOP-92 NSCLC was 93.7 µM; with BT-549 breast, more than 74.7 µM; with HS 578T breast it was 99.4 µM; with U251 CNS, more than 100 µM; in the test on NCI/ADR-RES ovarian, 68.8 µM.

On to `O=C1/C(=C/c2ccccc2Cl)N=C(c2ccccc2)N1Cc1ccco1`, for which the GI50 in the test on HOP-92 NSCLC is 51.9 µM; in the test on BT-549 breast, 39.8 µM; in the test with HS 578T breast, 72.8 µM; with U251 CNS, 57.8 µM; in the test with NCI/ADR-RES ovarian, more than 100 µM. For the same molecule, the TGI in the test on HOP-92 NSCLC, in the test on BT-549 breast, with HS 578T breast, in the test on U251 CNS and in the test with NCI/ADR-RES ovarian was more than 100 µM throughout.

Consider `COC(=O)c1ccccc1NC(=O)/C(=N\NC(C)(C)C)C(C#N)c1nc(-c2ccc([N+](=O)[O-])cc2)cs1` (stereo not drawn), for which the TGI in the test with HOP-92 NSCLC, with BT-549 breast, with HS 578T breast, with U251 CNS and in the test on NCI/ADR-RES ovarian was more than 100 µM each time.

For `CC1(C)N=C(N)N=C(N)N1c1ccc(F)c(C(F)(F)F)c1`, the GI50 was 12.4 µM with HOP-92 NSCLC; 1.96 µM with BT-549 breast; 21.2 µM in the test with HS 578T breast; 0.503 µM in the test with U251 CNS; more than 83.6 µM in the test with NCI/ADR-RES ovarian. Moreover, the TGI with HOP-92 NSCLC is more than 100 µM; in the test on BT-549 breast, more than 87.9 µM; with HS 578T breast it was more than 100 µM; in the test on U251 CNS it was more than 100 µM; with NCI/ADR-RES ovarian, more than 100 µM.

Consider `Nc1ccc2c(c1)C(=O)c1c(F)cccc1-2`, for which the TGI in the test on HOP-92 NSCLC is 93.3 µM; with BT-549 breast it was more than 100 µM; in the test on HS 578T breast it was more than 100 µM; with U251 CNS, more than 100 µM; in the test with NCI/ADR-RES ovarian, more than 100 µM.

As for `O=C(Nc1ccc(Br)cc1)Nc1n[nH]c2ccccc12`, the GI50 in the test with HOP-92 NSCLC is more than 86.3 µM; in the test with BT-549 breast, more than 100 µM; with HS 578T breast it was 46.8 µM; in the test with U251 CNS, more than 91.2 µM; with NCI/ADR-RES ovarian, more than 100 µM. Also, the TGI in the test on HOP-92 NSCLC, in the test with BT-549 breast, with HS 578T breast, in the test on U251 CNS and in the test with NCI/ADR-RES ovarian was more than 100 µM in each case.

Regarding `CC(=O)/C=C/C1=C(c2cc3ccccc3s2)c2ccccc2CC1`, the GI50 was 14.8 µM in the test with HOP-92 NSCLC; 33.6 µM in the test on BT-549 breast; 52.5 µM in the test with HS 578T breast; 39.6 µM with U251 CNS; 30.9 µM in the test with NCI/ADR-RES ovarian. Further, the TGI with HOP-92 NSCLC is 62.6 µM; in the test on BT-549 breast it was more than 100 µM; in the test with HS 578T breast, more than 100 µM; in the test on U251 CNS, more than 100 µM; in the test on NCI/ADR-RES ovarian, more than 100 µM.

In the case of `O=C1OC(c2ccc(O)c(-c3ccccc3)c2)(c2ccc(O)c(-c3ccccc3)c2)c2c(Cl)c(Cl)c(Cl)c(Cl)c21`, the TGI in the test on HOP-92 NSCLC, in the test on BT-549 breast, in the test on HS 578T breast, in the test with U251 CNS and with NCI/ADR-RES ovarian was more than 100 µM in each case.

Consider `COc1cccc(/C=N\Nc2ccc([N+](=O)[O-])cn2)c1O`, for which the GI50 in the test with HOP-92 NSCLC is 2.8 µM; in the test with BT-549 breast it was 4.47 µM; in the test with HS 578T breast it was 4.52 µM; in the test on U251 CNS, 1.93 µM; in the test on NCI/ADR-RES ovarian, 2.43 µM. For the same molecule, the TGI in the test with HOP-92 NSCLC is 9.44 µM; in the test with BT-549 breast it was 30 µM; with HS 578T breast, more than 100 µM; in the test on U251 CNS it was 19.8 µM; in the test with NCI/ADR-RES ovarian it was 28 µM.

As for `O=C(O)C1C2CC3C(OC(=O)C31)C2Br` (stereo not drawn), the TGI in the test on HOP-92 NSCLC, with BT-549 breast, with HS 578T breast, with U251 CNS and in the test on NCI/ADR-RES ovarian was more than 100 µM throughout.

Take `Cn1c(CCC#N)nc2ccc(Br)cc2c1=O`: the TGI with HOP-92 NSCLC, in the test with DLD-1 colon, with U251 CNS, in the test on DMS 114 small cell lung and with LXFL 529 NSCLC was more than 100 µM each time.

For `COCCOC(=O)C1=C(C)NC2=C(C(=O)CC(c3ccccc3OC)C2)C1c1cccc(O)c1` (stereo not drawn), the GI50 in the test with HOP-92 NSCLC was 1.04 µM; with BT-549 breast, 11.7 µM; with HS 578T breast it was 2.04 µM; with U251 CNS it was 16.3 µM; with NCI/ADR-RES ovarian, 35.9 µM. The TGI was 15.4 µM with HOP-92 NSCLC; 37.5 µM in the test with BT-549 breast; more than 26.2 µM with HS 578T breast; more than 72.2 µM in the test on U251 CNS; more than 100 µM with NCI/ADR-RES ovarian.

Turning to `COC(CCP(=O)(c1ccccc1)c1ccccc1)(C(=O)c1ccccc1)c1ccccc1` (stereo not drawn), the GI50 was 1.42 µM with HOP-92 NSCLC; 4.55 µM in the test with BT-549 breast; 4.81 µM in the test on HS 578T breast; 5.5 µM in the test on U251 CNS; 4.93 µM in the test on NCI/ADR-RES ovarian. Also, the TGI with HOP-92 NSCLC was found to be 16.6 µM; in the test on BT-549 breast it was 15.6 µM; in the test with HS 578T breast, 23.1 µM; with U251 CNS, 18.4 µM; in the test with NCI/ADR-RES ovarian, 20.9 µM.

As for `C(=C1c2ccccc2-c2ccccc21)c1ccccn1`, the GI50 in the test on HOP-92 NSCLC was 7.43 µM; in the test with BT-549 breast, 8.85 µM; in the test with HS 578T breast, 6.21 µM; with U251 CNS, 6.22 µM; with NCI/ADR-RES ovarian it was 3.86 µM. The TGI turned out to be 74.5 µM in the test on HOP-92 NSCLC; 53.1 µM with BT-549 breast; 28.5 µM in the test with HS 578T breast; 70.9 µM in the test on U251 CNS; 31 µM in the test with NCI/ADR-RES ovarian.

Take `COc1ccc(-c2n[nH]nc2-c2csc3ccccc23)cc1OC`: the GI50 was 0.922 µM in the test on HOP-92 NSCLC; 2.17 µM with BT-549 breast; 2.25 µM in the test with HS 578T breast; 2.19 µM in the test with U251 CNS; 2.39 µM with NCI/ADR-RES ovarian. Besides, the TGI in the test on HOP-92 NSCLC is 6.69 µM; with BT-549 breast, 12.5 µM; in the test on HS 578T breast, 10.6 µM; with U251 CNS, 11.4 µM; with NCI/ADR-RES ovarian, 23.2 µM.

Turning to `CN1C(=O)CNC(=O)[C@H](NC(=O)c2nc3ccccc3cc2O)CSSC[C@H]1C(=O)NCCc1nc2ccccc2cc1O`, the GI50 is more than 100 µM in the test on HOP-92 NSCLC; 14.3 µM with BT-549 breast; 21.5 µM with HS 578T breast; 16.5 µM in the test with U251 CNS; more than 88.5 µM in the test on NCI/ADR-RES ovarian. Further, the TGI is more than 100 µM in the test on HOP-92 NSCLC; 51.7 µM in the test with BT-549 breast; 67 µM in the test with HS 578T breast; 43 µM in the test with U251 CNS; more than 100 µM in the test with NCI/ADR-RES ovarian.

For `COc1cnc2c(c1)C(=O)c1c-2n(CCCn2ccnc2)c(=O)c2cc(Cl)ccc12`, the GI50 in the test with HOP-92 NSCLC is 0.0726 µM; in the test with BT-549 breast, 0.146 µM; with HS 578T breast, 11.4 µM; with U251 CNS, 0.0144 µM; in the test with NCI/ADR-RES ovarian, 0.03 µM. Moreover, the TGI in the test on HOP-92 NSCLC was 56.2 µM; in the test on BT-549 breast, more than 100 µM; in the test on HS 578T breast it was more than 100 µM; in the test with U251 CNS, 0.119 µM; with NCI/ADR-RES ovarian, 12.5 µM.
